{"source": "paper PMC11921695", "about": "(BMC Cancer, 2025)", "key": {"[1]": {"system": "HIV-associated Kaposi sarcoma", "experiment": "Objective response by ACTG criteria", "format": "in vivo, human", "settings": "for objective response (OR) rate: 90% CI", "procedure": "For registered patients, pre-treatment evaluation included: physical examination, ophthalmologic exam, electrocardiogram (ECG), echocardiogram or multi-gated acquisition (MUGA) scan, chest x-ray and CT thorax, abdomen, and pelvis. Adverse events according to CTCAE version 4.0 [18] were recorded every three weeks. The burden of cutaneous disease was estimated by summed tumour area sizes (mm^2) from photographic image measurements and evaluated at baseline using ACTG criteria (Supplementary Appendix 3), with subsequent formal response assessments including clinical photographs taken every 6 weeks for 12 months or until disease progression. For patients with visceral or extensive disease, repeat CT scans at these time points were also performed.\nOR rate was reported as the proportion of patients who achieved OR out of the total per-protocol population, with 90% confidence intervals (CI). Sensitivity analyses were also performed to compare this OR rate with ones that used the MTD population and the any-dose population as the denominator. The OR rate was also calculated for those who received at least six cycles of selumetinib.\nThe absence of any detectable residual disease, including tumour-associated oedema, persisting for at least 4 weeks.\nA 50% or greater decrease in the number and/or size of previously existing lesions (skin, oral, measurable or evaluable visceral disease) lasting for at least 4 weeks without the appearance of new lesions or the appearance or worsening of tumour-associated oedema or effusions, […] of 25% or more in the product of bi-dimensional diameters of any indicator lesion.\nAny response not meeting the criteria for progression or PR."}, "[2]": {"system": "HIV-associated Kaposi sarcoma", "experiment": "Progression-free survival (Kaplan-Meier)", "format": "in vivo, human"}, "[3]": {"system": "patients with HIV-associated KS", "experiment": "Number of selumetinib cycles completed and reasons for discontinuation", "format": "in vivo", "settings": "6/16 participants", "excerpt": "Reasons for discontinuation were reported in relation to the number of cycles received."}, "CD4 cell counts": {"system": "CD4 cell counts", "experiment": "HIV control: CD4 cell counts", "format": "in vivo, human", "procedure": "HIV control was assessed by plotting longitudinal HIV-1 viral load and CD4 cell counts over time for the per-protocol population. Due to missing data at the pre-treatment cycle 1 […] visit, the CD4 cell counts from the screening visit were used as the baseline comparator. Paired t-tests were done to test the difference between CD4 cell counts at screening, cycle 3 day 22 and cycle 6 day 22. Due to multiple testing, a Bonferroni correction was applied to the significance threshold, calculated as 0.05 ÷ 2 = 0.025.\n(§1) HIV-1 viral load and CD4 counts were measured as per standard of care at hospital sites. To measure the concentration of angiogenesis markers, 8.5 ml blood was collected in BD vacutainer no-additive serum tubes. Samples were kept at room temperature for 30 minutes before centrifugation at 2000 g for 20 minutes at room temperature. Serum samples were then stored at -80 °C prior to analysis. Serum Ang-1, Ang-2 and TIE levels were assessed using commercial ELISAs (Thermo Fisher Scientifc hAng-1 (EHANGPT1), R&D DuoSet Ang-2 (DY623), eBioscience hTIE2 (BMS2042)), according to manufacturer instructions at laboratories at the University of Sheffield."}, "Ang-1": {"system": "Ang-1", "experiment": "Serum angiogenic marker ELISA", "format": "in vivo, human", "settings": "end of cycles 1, 2, 4 and 6 vs pre-dose cycle 1 day 1; any dose", "procedure": "(§2) Pharmacodynamic measures were assessed by percentage changes in serum angiogenic markers and correlated with tumour response. The baseline used was that measured at cycle visit 1 day 1 pre-selumetinib treatment. Analysis of longitudinal data was performed using a mixed effects repeated measured regression, with a trend line and 90% CI derived using the fixed effect estimates from the model.\n(§3) Circulating angiogenic biomarkers on cycle 1 day 1 pre-treatment, cycle 2 day 1, cycle 3 day 1, cycle 5 day 1 and end of cycle 6 (all ±1 day except cycle 1 day 1 pre-treatment).\nas §1"}, "Ang-2": {"system": "Ang-2", "experiment": "Serum angiogenic marker ELISA", "format": "in vivo, human", "procedure": "as §2, §3, §1"}, "Tie-2": {"system": "Tie-2", "experiment": "Serum angiogenic marker ELISA", "format": "in vivo, human", "settings": "end of cycles 1, 2, 4 and 6 vs pre-dose cycle 1 day 1; any dose", "procedure": "as §2, §3, §1"}, "[4]": {"experiment": "Selumetinib and N-desmethyl selumetinib plasma levels (phase I pharmacokinetics)", "format": "in vivo", "settings": "for Selumetinib Concentration, 2 Hours Post-Dose / Selumetinib Concentration, 6 Hours Post-Dose / Selumetinib Concentration, Day 1 Pre-Dose: plasma, individual patients; for Selumetinib Concentration, 2 Hours Post-Dose / Selumetinib Concentration, 6 Hours Post-Dose: cycle 1 day 1", "procedure": "Pharmacokinetic studies will be performed in phase I only . […]\ncompartmental analysis will estimate C max, AUC0-24 , clearance and t1/2 from per ipheral blood measurements of both AZD 6244 and its metabolites pr e- dose, and at 2 and 6 hours post dose on day 1 and pre- dos e day 15. Labor atory bioanalysis will be performed by Quotient […]\n• Samples to be collected Cycle 1 Day 1 Pre -treatment, 2 hours and 6 hours post dose (aft er f irst set of tablets) pre- dose Cycle 1 Day 15.\n• 5mls of venous blood should be collected into a K2- ED TA BD vacutainer • Samples should be inverted several times to ensure adequate mix ing. […]\n• 2x 500µ l of plasma should be aliquoted to polypropylene eppendorf tubes.\n• Tubes should be individually labeled with the patient’s study number and sample time- point.\n• Samples should be stored at - 200C.\n• 1 x sample to be transferred on dry ice to Quotient Bioresearch for bioanalysis (all four sample time- points day 1 pre- d ose, and at 2 and 6 hours post d ose and pre- dose day 1 5 can be shipped together – please refer to the Laboratory Manual for c ourier details).\n• 1 x sample to be stored at the study centre as back-up."}, "p38 and JNK": {"system": "p38 and JNK", "parameters": "method as in Banerji, et al.", "settings": "protocol background; ref Banerji, et al.; cited from earlier work"}, "[5]": {"system": "patients with advanced cancer", "parameters": "method as in Banerji, et al.", "settings": "ref Banerji, et al., cited from earlier work"}, "[6]": {"system": "non-small cell lung cancer", "parameters": "method as in SCART protocol 7.3.1", "settings": "combination arm; ref SCART protocol 7.3.1; cited from earlier work"}, "Japanese patients, NSCLC": {"system": "Japanese patients, NSCLC", "parameters": "method as in study D1532C00067", "settings": "selumetinib + Docetaxel, ref study D1532C00067; cited from earlier work"}, "[7]": {"settings": "any dose/safety population, 16 patients"}, "[8]": {"settings": "per protocol population, 12 patients"}}, "note": "Values joined by “and” are separate entries in the source; they are usually repeats but may differ in a detail not shown here. Equal values may be shown once. “Also recorded” adds a separate entry of the source.", "data": [{"smiles": "Cn1cnc2c(F)c(Nc3ccc(Br)cc3Cl)c(C(=O)NOCCO)cc21", "note": "[selumetinib, 6-(4-Bromo-2-chloro-phenylamino)-7-fluro-3-methyl-3 H-benzoimidazole-5-carboxylic acid (2-hydroxy-ethoxy)-amide hydrogen sulphate]", "values": [{"measurement": "objective response (OR) rate", "setting": "[1]; MTD population (sensitivity analysis)", "result": 6.7, "unit": "%"}, {"measurement": "objective response (OR) rate", "setting": "[1]; any-dose/safety population (sensitivity analysis)", "result": 6.3, "unit": "%"}, {"measurement": "clinical benefit rate (CR, PR and SD)", "setting": "[1]; any-dose/safety population, 16 patients", "result": 75, "unit": "%"}, {"measurement": "objective response (OR) rate", "setting": "[1]; per-protocol population, 12 patients, 75 mg bd + ART", "result": 8.3, "unit": "%"}, {"measurement": "response duration", "setting": "[1]; the only patient with PR (deepened to CR after discontinuing at 3 cycles)", "result": 201, "unit": "days"}, {"measurement": "3-month PFS (90% CI)", "setting": "[2]; MTD population, 15 patients", "result": "66%(42%,82%)"}, {"measurement": "6-month PFS (90% CI)", "setting": "[2]; MTD population, 15 patients", "result": "44% (22%, 64%)"}, {"measurement": "Median PFS in months (90% CI)", "setting": "[2]; MTD population, 15 patients", "result": "5.53 (2.53, 12.80) months"}, {"measurement": "3-month PFS (90% CI)", "setting": "[2]; [7]", "result": "62%(39%,78%)"}, {"measurement": "6-month PFS (90% CI)", "setting": "[2]; [7]", "result": "41% (21%, 61%)"}, {"measurement": "Median PFS in months (90% CI)", "setting": "[2]; [7]", "result": "4.14 (2.53, 12.80) months"}, {"measurement": "3-month PFS (90% CI)", "setting": "[2]; [8]", "result": "57%(31%,76%)"}, {"measurement": "Median PFS in months (90% CI)", "setting": "[2]; [8]", "result": "3.42 (1.74, -^$) months"}, {"measurement": "participants who discontinued selumetinib due to toxicity before completing six cycles", "setting": "[3]", "result": 37.5, "unit": "%"}, {"measurement": "mean increase in CD4 cell counts", "setting": "CD4 cell counts; cycle 3 day 22 vs screening, per-protocol population, 95% CI: 41.91, 280.63, p = 0.013", "result": 161.27, "unit": "cells/mm^3"}, {"measurement": "increase in CD4 cell counts", "setting": "CD4 cell counts; cycle 6 day 22 vs pre-treatment, 95% CI: 31.87, 273.47, p = 0.023", "result": 152.67, "unit": "cells/mm^3"}, {"measurement": "change in circulating level of Ang-1", "setting": "Ang-1", "result": "no significant changes"}, {"measurement": "change in circulating level of Ang-2", "setting": "Ang-2; end of cycles 1, 2, 4 and 6 vs pre-dose cycle 1 day 1, any dose", "result": "no significant changes"}, {"measurement": "serum levels of Ang-2 on treatment compared to baseline (trend)", "setting": "Ang-2; on selumetinib treatment", "result": "tended to be lower"}, {"measurement": "change in circulating level of Tie-2", "setting": "Tie-2", "result": "no significant changes; also recorded: no changes were observed"}, {"measurement": "plasma levels compared with other selumetinib studies", "setting": "[4]; phase I, comparison with refs 19-22", "result": "consistent with published reports from other selumetinib studies"}, {"measurement": "Selumetinib Concentration, 2 Hours Post-Dose", "setting": "[4]; starting dose 50 mg bd", "result": "201 ng/mL and 304 ng/mL and 238 ng/mL and 274 ng/mL"}, {"measurement": "Selumetinib Concentration, 6 Hours Post-Dose", "setting": "[4]; starting dose 50 mg bd", "result": "26.5 ng/mL and 48.5 ng/mL and 47.9 ng/mL"}, {"measurement": "Selumetinib Concentration, 2 Hours Post-Dose", "setting": "[4]; starting dose 75 mg bd", "result": "1280 ng/mL and 1250 ng/mL and 361 ng/mL and 247 ng/mL and 504 ng/mL and 1040 ng/mL"}, {"measurement": "Selumetinib Concentration, 6 Hours Post-Dose", "setting": "[4]; starting dose 75 mg bd", "result": "249 ng/mL and 180 ng/mL and 284 ng/mL and 452 ng/mL and 66.1 ng/mL"}, {"measurement": "Selumetinib Concentration, Day 1 Pre-Dose", "setting": "[4]; starting dose 50 mg bd", "result": "BLQ"}, {"measurement": "Selumetinib Concentration, Day 1 Pre-Dose", "setting": "[4]; starting dose 75 mg bd", "result": "BLQ"}, {"measurement": "activity against other kinases including p38 and JNK", "setting": "p38 and JNK", "result": "inactive, or minimally active"}, {"measurement": "dose identified as both safe and tolerable", "setting": "[5]; selumetinib monotherapy", "result": 75, "unit": "mg bd"}, {"measurement": "mean decrease in left ventricular ejection fraction (LVEF)", "setting": "[5]; week 8, range -25% to +10%", "result": -7.2, "unit": "%"}, {"measurement": "febrile neutropenia CTCAE grade 3, patients", "setting": "[6]", "result": "6/44"}, {"measurement": "febrile neutropenia CTCAE grade 4, patients", "setting": "[6]", "result": "2/44"}, {"measurement": "febrile neutropenia, patients treated", "setting": "Japanese patients, NSCLC", "result": "3 of 8"}]}]}
